From patent US10526327B2, “Histone demethylase inhibitors” (CELGENE QUANTICEL RESEARCH, INC., priority 2013, dated 2020)

Experiments:
KDM5A/B = assay: In vitro cell-based assay: immuno-blot quantification of tri-methyl H3K4 in ZR-75-1 breast cancer cells; details: 72 hours, tri-methyl H3K4 level relative to GAPDH, percent of DMSO, read-out: Cellular IC50
Description: An assay to measure the degree of cellular inhibition of KDM5A and 5B was developed. This quantitative immuno-blotting assay measures the amount tri-methylated histone H3 at amino acid Lysine number 4, a specific substrate […] of the direct enzymatic activity of the histone demethylases KDM5A and KDM5B from extracts of the ZR-75-1 breast cancer cell line.
This assay is a fluorometric immunoassay for the quantification of tri-methyl H3K4 extracted from cells treated with test compound and is used as a measure of the cellular inhibition of KDM5A/B.
ZR-75-1 (PTEN null, ER+) breast cancer cells numbering 50,000 (ATCC) were seeded into each well of a 96-well tissue culture treated plate and then exposed to an 11 point dilution of test compound with final concentration ranges of test compound ranging from 1250 μM to 10 nM. Cells were left in the presence of test compound for 72 hours. Extracts were prepared containing all of the cellular histone material using detergent based lysis and sonication methods. These lysates were subsequently normalized for total protein content using a colorimetric bicinchonic acid assay (MicroBCA Pierce/Thermo Scientific). Normalized cell extracts were then subjected to typical immuno-blotting procedures using NuPage reagents (Life Technologies). Electrophoretically separated histones were then transferred and immobilized using polyvinylidene difluoride membrane (Immobilon-FL Millipore). The amount of tri-methylated lysine 4 of histone H3 was detected using an antibody specific to the tri-methylated state (Cell Signaling Technologies) and quantified on an infrared imager using a densitometry software package (Odyssey CLx, Image Studio, Li-Cor). This background subtracted densitometry value was reported as a ration of the GAPDH amount for that sample and then calculated as a percent of the DMSO treated sample. The software package XL-fit (IDBS) was then used to calculate a relative IC50 value for the dilution series of a given test compound according to the equation: fit=(D+((Vmax*(x^n))/((x^n)+(Km^n)))).

Jarid1B = target: T1, Jarid1B (Homo sapiens, UniProt Q9UGL1); assay: Jarid1B in vitro enzyme inhibition assay (TR-FRET); assay type: biochemical
T1 construct: purchased BPS Bioscience or custom made by MolecularThroughput 50121
T1 sequence (Q9UGL1 2-751): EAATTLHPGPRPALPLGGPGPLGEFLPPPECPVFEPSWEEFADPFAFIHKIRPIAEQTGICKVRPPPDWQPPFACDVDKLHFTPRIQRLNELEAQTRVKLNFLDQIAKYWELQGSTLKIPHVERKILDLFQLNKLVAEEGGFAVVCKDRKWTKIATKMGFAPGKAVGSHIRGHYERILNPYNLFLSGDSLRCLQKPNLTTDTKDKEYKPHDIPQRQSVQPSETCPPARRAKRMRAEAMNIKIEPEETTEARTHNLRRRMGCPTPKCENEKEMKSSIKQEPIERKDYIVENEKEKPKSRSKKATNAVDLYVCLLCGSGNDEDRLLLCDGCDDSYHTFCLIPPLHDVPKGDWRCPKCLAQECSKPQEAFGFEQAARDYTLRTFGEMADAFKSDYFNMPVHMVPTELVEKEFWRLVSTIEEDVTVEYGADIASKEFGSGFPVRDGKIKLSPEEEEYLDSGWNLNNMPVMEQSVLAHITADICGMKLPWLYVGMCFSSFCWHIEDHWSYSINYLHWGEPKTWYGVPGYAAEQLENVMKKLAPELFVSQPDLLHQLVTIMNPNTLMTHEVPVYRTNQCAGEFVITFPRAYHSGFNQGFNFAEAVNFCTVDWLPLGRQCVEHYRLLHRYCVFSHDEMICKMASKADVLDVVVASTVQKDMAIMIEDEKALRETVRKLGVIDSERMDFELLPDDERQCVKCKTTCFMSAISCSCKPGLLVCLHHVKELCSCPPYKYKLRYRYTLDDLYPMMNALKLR
Description: This assay determines the ability of a test compound to inhibit Jarid1A, Jarid1B, and JMJD2C demethylase activity. Baculovirus expressed Jarid1A (GenBank Accession #NM_001042603, AA1-1090) was purchased from BPS Bioscience (Cat#50110). Baculovirus expressed Jarid1B (GenBank Accession #NM_006618, AA 2-751) was purchased from BPS Bioscience (Cat #50121) or custom made by MolecularThroughput. Baculovirus expressed JMJD2C (GenBank Accession #BC143571, AA 2-372) was purchased from BPS Bioscience (Cat#50105).
The ability of test compounds to inhibit the activity of Jarid1B was determined in 384-well plate format under the following reaction conditions: 0.8 nM Jarid1B, 300 nM H3K4me3-biotin labeled peptide (Anaspec cat #64357), 2 μM alpha-ketoglutaric acid in assay buffer of 50 mM HEPES, pH7.3, 0.005% Brij35, 0.5 mM TCEP, 0.2 mg/ml BSA, 50 μM sodium L-ascorbate, and 2 μM ammonium iron(II) sulfate. Reaction product was determined quantitatively by TR-FRET after the addition of detection reagent Phycolink Streptavidin-allophycocyanin (Prozyme) and Europium-anti-mono-or di-methylated histone H3 lysine 4 (H3K4me1-2) antibody (PerkinElmer) in the presence of 5 mM EDTA in LANCE detection buffer (PerkinElmer) at a final concentration of 25 nM and 1 nM, respectively.
The assay reaction was initiated by the following: 2 μl of the mixture of 900 nM H3K4me3-biotin labeled peptide and 6 μM alpha-ketoglutaric acid with 2 μl of 11-point serial diluted inhibitor in 3% DMSO was added to each well of the plate, followed by the addition of 2 μl of 2.4 nM Jarid1B to initiate the reaction. The reaction mixture was incubated at room temperature for 30 minutes, and terminated by the addition of 6 μl of 5 mM EDTA in LANCE detection buffer containing 50 nM Phycolink Streptavidin-allophycocyanin and 2 nM Europium-anti-H3K4me1-2 antibody. Plates were read by EnVisionMultilabel Reader in TR-FRET mode (excitation at 320 nm, emission at 615 nm and 665 nm) after 1 hour incubation at room temperature. A ratio was calculated (665/615) for each well and fitted to determine inhibition constant (IC50).

Oc1nc(OCc2ccccc2)nc2cnccc12 [Example 4, 2-phenylmethoxypyrido[3,4-d]pyrimidin-4-ol]
IC50 (KDM5A/B): 1 to 10 µM
IC50 (Jarid1B): 0.1 to 1 µM

Oc1nc(OCC2CC2)nc2cnccc12 [Example 5, 2-(cyclopropylmethoxy)-3H-pyrido[3,4-d]pyrimidin-4-one]
IC50 (KDM5A/B): > 10 µM
IC50 (Jarid1B): 0.1 to 1 µM

CCCOc1nc(O)c2ccncc2n1 [Example 7, 2-propoxy-3H-pyrido[3,4-d]pyrimidin-4-one]
IC50 (KDM5A/B): > 10 µM
IC50 (Jarid1B): 0.1 to 1 µM

Oc1nc(OCCOc2ccccc2)nc2cnccc12 [Example 10, 2-(2-phenoxyethoxy)-3H-pyrido[3,4-d]pyrimidin-4-one]
IC50 (KDM5A/B): > 10 µM
IC50 (Jarid1B): 0.1 to 1 µM

Oc1nc(OCC2CCC2)nc2cnccc12 [Example 11, 2-(cyclobutylmethoxy)-3H-pyrido[3,4-d]pyrimidin-4-one]
IC50 (KDM5A/B): > 10 µM
IC50 (Jarid1B): 0.1 to 1 µM

Oc1nc(OCC(F)(F)F)nc2cnccc12 [Example 12, 2-(2,2,2-trifluoroethoxy)pyrido[3,4-d]pyrimidin-4-ol]
IC50 (KDM5A/B): > 10 µM
IC50 (Jarid1B): 0.1 to 1 µM

CC(=O)Nc1ccc(Oc2nc(O)c3ccncc3n2)cc1 [Example 35, N-[4-(4-hydroxypyrido[3,4-d]pyrimidin-2-yl)oxyphenyl]acetamide]
IC50 (KDM5A/B): 1 to 10 µM
IC50 (Jarid1B): ≤ 0.1 µM

Oc1nc(Oc2ccc(F)c(F)c2)nc2cnccc12 [Example 37, 2-(3,4-difluorophenoxy)pyrido[3,4-d]pyrimidin-4-ol]
IC50 (KDM5A/B): > 10 µM
IC50 (Jarid1B): ≤ 0.1 µM

Oc1nc(Oc2cccc(F)c2)nc2cnccc12 [Example 40, 2-(3-fluorophenoxy)pyrido[3,4-d]pyrimidin-4-ol]
IC50 (KDM5A/B): > 10 µM
IC50 (Jarid1B): ≤ 0.1 µM

Oc1nc(Oc2cccc(Cl)c2)nc2cnccc12 [Example 41, 2-(3-chlorophenoxy)pyrido[3,4-d]pyrimidin-4-ol]
IC50 (KDM5A/B): > 10 µM
IC50 (Jarid1B): ≤ 0.1 µM

COc1cccc(Oc2nc(O)c3ccncc3n2)c1 [Example 44, 2-(3-methoxyphenoxy)pyrido[3,4-d]pyrimidin-4-ol]
IC50 (KDM5A/B): > 10 µM
IC50 (Jarid1B): ≤ 0.1 µM

CCOc1c(F)cc(Oc2nc(O)c3ccncc3n2)cc1F [Example 45, 2-(4-ethoxy-3,5-difluorophenoxy)pyrido[3,4-d]pyrimidin-4-ol]
IC50 (KDM5A/B): > 10 µM
IC50 (Jarid1B): ≤ 0.1 µM

Oc1nc(Oc2ccc(F)cc2)nc2cnccc12 [Example 47, 2-(4-fluorophenoxy)pyrido[3,4-d]pyrimidin-4-ol]
IC50 (KDM5A/B): > 10 µM
IC50 (Jarid1B): ≤ 0.1 µM

COc1ccc(Oc2nc(O)c3ccncc3n2)cc1 [Example 48, 2-(4-methoxyphenoxy)pyrido[3,4-d]pyrimidin-4-ol]
IC50 (KDM5A/B): > 10 µM
IC50 (Jarid1B): ≤ 0.1 µM

Oc1nc(Oc2ccc(Cl)cc2)nc2cnccc12 [Example 49, 2-(4-chlorophenoxy)pyrido[3,4-d]pyrimidin-4-ol]
IC50 (KDM5A/B): > 10 µM
IC50 (Jarid1B): ≤ 0.1 µM

CN(C)c1cccc(Oc2nc(O)c3ccncc3n2)c1 [Example 50, 2-[3-(dimethylamino)phenoxy]pyrido[3,4-d]pyrimidin-4-ol]
IC50 (KDM5A/B): > 10 µM
IC50 (Jarid1B): ≤ 0.1 µM

Oc1nc(Oc2cccc(C(F)(F)F)c2)nc2cnccc12 [Example 52, 2-[3-(trifluoromethyl)phenoxy]pyrido[3,4-d]pyrimidin-4-ol]
IC50 (KDM5A/B): 1 to 10 µM
IC50 (Jarid1B): ≤ 0.1 µM

COc1ccc(Oc2nc(O)c3ccncc3n2)cc1F [Example 53, 2-(3-fluoro-4-methoxyphenoxy)pyrido[3,4-d]pyrimidin-4-ol]
IC50 (KDM5A/B): 1 to 10 µM
IC50 (Jarid1B): ≤ 0.1 µM

CCCn1cc(Oc2nc(O)c3ccncc3n2)cn1 [Example 54, 2-(1-propylpyrazol-4-yl)oxypyrido[3,4-d]pyrimidin-4-ol]
IC50 (KDM5A/B): 1 to 10 µM
IC50 (Jarid1B): ≤ 0.1 µM

CC(C)CCn1cc(Oc2nc(O)c3ccncc3n2)cn1 [Example 55, 2-{[1-(3-methylbutyl)pyrazol-4-yl]oxy}pyrido[3,4-d]pyrimidin-4-ol]
IC50 (KDM5A/B): 1 to 10 µM
IC50 (Jarid1B): ≤ 0.1 µM

Oc1nc(Oc2ccnc(N3CCNCC3)c2)nc2cnccc12 [Example 96, 2-(2-piperazin-1-ylpyridin-4-yl)oxypyrido[3,4-d]pyrimidin-4-ol]
IC50 (Jarid1B): ≤ 0.1 µM

Oc1nc(Oc2ccnc(N3CCOCC3)c2)nc2cnccc12 [Example 97, 2-(2-morpholin-4-ylpyridin-4-yl)oxypyrido[3,4-d]pyrimidin-4-ol]
IC50 (Jarid1B): ≤ 0.1 µM

Cn1cnc(-c2nccc3c(O)nc(OCC(C)(C)O)nc23)c1 [Example 98, 2-(2-hydroxy-2-methylpropoxy)-8-(1-methylimidazol-4-yl)pyrido[3,4-d]pyrimidin-4-ol]
IC50 (Jarid1B): 0.1 to 1 µM

CC(c1ccccc1)n1cc(Oc2nc(O)c3ccncc3n2)cn1 (stereo not drawn) [Example 99]
IC50 (Jarid1B): ≤ 0.1 µM

Cn1cnc(-c2nccc3c(O)nc(Oc4cnn(C5CCOCC5)c4)nc23)c1 [Example 100, 8-(1-methylimidazol-4-yl)-2-[1-(oxan-4-yl)pyrazol-4-yl]oxypyrido[3,4-d]pyrimidin-4-ol]
IC50 (Jarid1B): ≤ 0.1 µM

Cn1cnc(-c2nccc3c(O)nc(OCc4ccccc4)nc23)c1 [Example 101, 8-(1-methylimidazol-4-yl)-2-phenylmethoxypyrido[3,4-d]pyrimidin-4-ol]
IC50 (Jarid1B): ≤ 0.1 µM

Cn1cnc(-c2nccc3c(O)nc(OCC4CCOCC4)nc23)c1 [Example 102, 8-(1-methyl-1H-imidazol-4-yl)-2-(oxan-4-ylmethoxy)pyrido[3,4-d]pyrimidin-4-ol]
IC50 (Jarid1B): 0.1 to 1 µM

Cn1cnc(-c2nccc3c(O)nc(OCC4CCOC4)nc23)c1 (stereo not drawn) [Example 103, 8-(1-methyl-1H-imidazol-4-yl)-2-(oxolan-3-ylmethoxy)pyrido[3,4-d]pyrimidin-4-ol]
IC50 (Jarid1B): ≤ 0.1 µM

Cn1cnc(-c2nccc3c(O)nc(OCc4cccc(F)c4)nc23)c1 [Example 104, 2-[(3-fluorophenyl)methoxy]-8-(1-methyl-1H-imidazol-4-yl)pyrido[3,4-d]pyrimidin-4-ol]
IC50 (Jarid1B): ≤ 0.1 µM

Cn1cnc(-c2nccc3c(O)nc(OCc4ccccc4Cl)nc23)c1 [Example 105, 2-[(2-chlorophenyl)methoxy]-8-(1-methyl-1H-imidazol-4-yl)pyrido[3,4-d]pyrimidin-4-ol]
IC50 (Jarid1B): ≤ 0.1 µM

Cn1cnc(-c2nccc3c(O)nc(OCc4cccc(Cl)c4Cl)nc23)c1 [Example 106, 2-[(2,3-dichlorophenyl)methoxy]-8-(1-methyl-1H-imidazol-4-yl)pyrido[3,4-d]pyrimidin-4-ol]
IC50 (Jarid1B): ≤ 0.1 µM
